{"source": "paper PMC3139784", "about": "(Bioorganic & medicinal chemistry, 2011)", "key": {"[1]": {"assay": "Spontaneous hydrolysis in buffered aqueous solution", "format": "physicochemical", "details": "within 5 mins of addition to buffered aqueous (pH 7.4) solution"}, "[2]": {"test_system": "mammalian CEs (hCE1, hiCE, rCE)", "assay": "CE inhibition across mammalian CEs", "format": "biochemical", "details": "hCE1, hiCE or rCE, o-NPA substrate"}, "CE": {"test_system": "CE", "assay": "Ability of compounds to act as CE substrates", "format": "biochemical", "details": "200 μM compound, 50 mM Hepes pH 7.4, data not shown"}, "[3]": {"test_system": "U373MG cells expressing hiCE", "assay": "Growth inhibition assay with inhibitors and CPT-11", "format": "cell-based", "details": "U373MGhiCE cells"}, "hAChE": {"target": "hAChE (Homo sapiens, UniProt P22303)", "sequence (P22303 32-614)": "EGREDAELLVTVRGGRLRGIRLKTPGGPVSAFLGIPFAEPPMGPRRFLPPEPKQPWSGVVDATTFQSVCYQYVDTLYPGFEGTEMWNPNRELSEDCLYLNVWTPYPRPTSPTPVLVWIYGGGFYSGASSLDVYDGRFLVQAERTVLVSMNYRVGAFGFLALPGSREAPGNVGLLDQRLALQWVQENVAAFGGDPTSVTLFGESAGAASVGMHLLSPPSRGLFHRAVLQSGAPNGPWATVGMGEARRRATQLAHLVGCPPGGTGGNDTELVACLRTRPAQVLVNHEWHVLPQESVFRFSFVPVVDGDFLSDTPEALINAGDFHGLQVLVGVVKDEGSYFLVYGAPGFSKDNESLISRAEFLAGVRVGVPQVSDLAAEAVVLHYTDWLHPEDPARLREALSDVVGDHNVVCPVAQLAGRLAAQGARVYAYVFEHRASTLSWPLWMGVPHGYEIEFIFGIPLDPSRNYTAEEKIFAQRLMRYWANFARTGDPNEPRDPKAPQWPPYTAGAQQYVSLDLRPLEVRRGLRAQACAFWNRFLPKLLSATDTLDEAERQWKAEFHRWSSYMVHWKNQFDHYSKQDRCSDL", "assay": "Inhibition of acetylcholinesterase", "format": "biochemical"}, "hBChE": {"target": "hBChE (Homo sapiens, UniProt P06276)", "sequence (P06276 29-602)": "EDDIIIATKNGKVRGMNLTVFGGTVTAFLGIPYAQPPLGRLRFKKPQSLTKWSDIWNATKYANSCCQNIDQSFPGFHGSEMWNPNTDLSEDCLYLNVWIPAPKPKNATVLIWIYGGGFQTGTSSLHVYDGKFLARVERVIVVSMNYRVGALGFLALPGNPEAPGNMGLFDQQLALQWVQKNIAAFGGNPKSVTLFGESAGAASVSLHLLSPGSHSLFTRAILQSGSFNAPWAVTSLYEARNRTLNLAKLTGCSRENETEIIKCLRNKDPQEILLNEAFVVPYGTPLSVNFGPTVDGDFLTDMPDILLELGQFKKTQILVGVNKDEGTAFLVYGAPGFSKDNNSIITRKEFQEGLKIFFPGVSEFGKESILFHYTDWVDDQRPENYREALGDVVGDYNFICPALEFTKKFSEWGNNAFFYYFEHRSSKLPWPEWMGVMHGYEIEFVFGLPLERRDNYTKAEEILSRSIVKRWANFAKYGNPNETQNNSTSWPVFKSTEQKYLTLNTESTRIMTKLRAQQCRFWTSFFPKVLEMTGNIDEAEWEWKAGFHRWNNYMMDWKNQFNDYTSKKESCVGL", "assay": "Inhibition of butyrylcholinesterase", "format": "biochemical"}}, "data": [{"molecule": "O=C(Sc1ccccc1)C(=O)Sc1ccccc1", "note": "[Compound 3, S^1, S^2-Diphenyl ethane bis(thioate)]", "values": [{"measurement": "Compound hydrolyzed spontaneously", "setting": "[1]", "result": "greater than 40%"}, {"measurement": "CE inhibition (in words)", "setting": "[2]", "result": "ineffective at enzyme inhibition"}, {"measurement": "Hydrolysis on addition of CE (in words)", "setting": "CE", "result": "not enhanced"}]}, {"molecule": "O=C(C(=O)c1ccccc1)c1ccccc1", "note": "[Compound 1, Benzil, reference compound]", "values": [{"measurement": "Reduction of toxicity of CPT-11", "setting": "[3]; versus CPT-11 alone", "result": "~ 6 fold"}]}, {"molecule": "O=C(Oc1ccccc1)C(=O)Oc1ccccc1", "note": "[Compound 4, Diphenyl ethanedioate]", "values": [{"measurement": "Compound hydrolyzed spontaneously", "setting": "[1]", "result": "greater than 40%"}, {"measurement": "CE inhibition (in words)", "setting": "[2]", "result": "ineffective at enzyme inhibition"}, {"measurement": "Hydrolysis on addition of CE (in words)", "setting": "CE", "result": "not enhanced"}]}, {"molecule": "O=C(Nc1ccccc1)C(=O)Nc1ccccc1", "note": "[Compound 2, Oxanilide]", "values": [{"measurement": "Activity towards hAChE (in words)", "setting": "hAChE", "result": "lacked activity"}, {"measurement": "Activity towards hBChE (in words)", "setting": "hBChE", "result": "lacked activity"}, {"measurement": "CE inhibition (in words)", "setting": "[2]", "result": "not an inhibitor"}]}, {"molecule": "CCCCCCC(=O)C(=O)CCCCCC", "note": "[Compound 13, Tetradecane-7,8-dione]", "values": [{"measurement": "Modulation of CPT-11 cytotoxicity (in words)", "setting": "[3]; 10 μM inhibitor", "result": "ineffective"}]}]}
